{"source": "patent US12257290B2", "about": "“PIC1 inhibition of myeloperoxidase oxidative activity in an animal model” (priority 2018, dated 2025)", "key": {"Human neutrophil MPO": {"tested_on": "Human neutrophil MPO", "experiment": "Purified MPO inflammatory peritonitis model (peritoneal wash TMB peroxidase activity, PicoGreen free DNA)", "type": "in vivo, Wistar rats", "conditions": "for MPO activity in peritoneal wash: P<0.019", "method": "Human neutrophil MPO (Lee Biosolutions) was diluted in sterile saline to the respective doses necessary for each experiment. PIC1 in the form of PA-dPEG24 (PolyPeptide Group) was solubilized and diluted in 0.5 M Histidine buffer, adjusted to pH 6.5, and then diluted to each of the respective doses used for each experiment.\nWistar rats were sedated and injected IP with purified MPO in experiments that were conducted under an Eastern Virginia Medical School IRB approved protocol (#17-008). 16-week-old male Wistar rats were used in these experiments weighing approximately 200 g. The rats received sedation with ketamine and acepromazine prior to all procedures. They then received a 1 ml IP injection with MPO in saline. After the time interval indicated, a tail vein phlebotomy was performed to obtain 250 mcl of blood in a K2EDTA Microtainer (BD). The animals were then euthanized with FatalPlus IV. A peritoneal wash with 20 ml of ice cold PBS was then performed by […] followed by massage and extraction from a small hole in the peritoneum with a blunt needle and syringe.\nCells were sedimented and supernatants were tested for MPO peroxidation of TMB, with sample processing performed as follows. Peritoneal wash fluid was centrifuged at 1500×g for 5 minutes to sediment cells and other debris. The resulting peritoneal wash fluid supernatant was aliquoted and frozen for further analysis. The cell pellet was resuspended to the original volume with saline and cells were counted on a hemocytometer. Plasma was collected after centrifugation of the lavender top blood collection tubes.\nThe MPO activity assay was performed as follows. Peritoneal fluid, along with pure MPO for a standard curve, was serially titrated in 0.1 ml in a 96 well plate followed by the addition of 0.1 ml of 3,3′,5,5′-tetramethylbenzidine (TMB) (Fisher). After one minute, 0.1 ml of 2.5 M H2SO4 was added to stop the reaction and the plate was read at 450 nm. Using linear regression from the standard curve, the MPO activity was calculated for each sample.\nIn the peritoneal wash fluid supernatants, free DNA was measured as a marker of NETosis via the PicoGreen assay. Peritoneal fluid or plasma, along with DNA (Invitrogen) for a standard curve, was serially titrated in 0.1 ml in a 96 well plate and used in the Quant-iT PicoGreen (Fisher) assay. The PicoGreen solution was diluted as directed by the kit instructions and added to samples, which were incubated in the dark for 10 minutes and then read on a fluorescent microplate reader at excitation 480 nm/emission 520 nm). Using linear regression from the standard curve, the DNA concentration was quantitated for each sample.\nThe effect of PIC1, in particular PA-dPEG24, on the inhibition of MPO and NETosis in MPO-mediated peritonitis was then assayed. A series of increasing doses of PA-dPEG24 (1 mg, 5 mg, and 20 mg) were injected IP immediately, i.e., one minute after purified MPO was inoculated, into the peritoneum followed 2 hours later by phlebotomy, euthanasia and peritoneal wash. A control was used where no PA-dPEG24 was administered. An MPO activity assay and a free DNA assay according to the methods discussed above were conducted for each of 0 mg, 1 mg, 5 mg, and 20 mg PA-dPEG24 doses."}, "[1]": {"tested_on": "complement activation in normal human serum (NHS)", "experiment": "Heat-aggregated IgG immune complex-initiated complement activation in normal human serum (C5a, iC3b, SC5b-9 ELISA)", "type": "biochemical", "method": "Immune complex activation of NHS was performed as follows. NHS was stimulated with three different types of immune complexes (IC) to induce complement activation. Heat-aggregated IgG was generated by incubating intravenous immune globulin at 50 mg/ml at 63° C. for 30 min [26]. Ovalbumin-antiovalbumin immune complexes were made by incubating 0.01 ml anti-ovalbumin antibody with an equal volume of ovalbumin, at 0.25 mg/nil, at 37° C. for 30 minutes and then storing at 4° C. overnight. C1 immune complexes were formed by incubating 0.02 ml anti-C1q goat sera with 5 μl of C1, at 200 μg/ml, at 30° C. for 30 minutes and then placing in an ice water bath. For C5a and C5b-9 assays, activation of NHS was performed by pre-incubating 5% NHS with titrating concentrations of PA-dPEG24 in 0.3 ml of GVBS^++ buffer for 30 minutes at room temperature. Then […] of either heat-aggregated IVIg, or ovalbumin IC, or 5 μI of C1-antiC1q IC was added to the mix for 30 min. at 37° C. This reaction was stopped with the addition of an equal volume of GVBS^−−. For iC3b detection, 1% NHS was used and the rest of the protocol remained the same.\nELISA was performed as follows. Samples were assayed using C5a, iC3b, and SC5b-9 ELISAs. […] Colorimetric detection was performed with TMB, stopped with H2SO4 and read on a BioTek Synergy HT plate reader at 450 nm. […]"}}, "note": "Ends that are not written are not given here.", "data": [{"substance": "IALILEPICCQERAA-dPEG24 (cysteine pairing not given here) [PA-dPEG24, 15-amino acid PEGylated peptide, 24 PEG moieties at the C-terminus]", "values": [{"measurement": "MPO activity in peritoneal wash", "setting": "Human neutrophil MPO; 1 mg (5 mg/kg) IP, 2 h", "value": "Statistically significant decreases"}, {"measurement": "MPO activity in peritoneal wash", "setting": "Human neutrophil MPO; 5 mg (25 mg/kg) IP, 2 h", "value": "Statistically significant decreases"}, {"measurement": "free DNA in the peritoneal fluid (PicoGreen)", "setting": "Human neutrophil MPO; 20 mg (100 mg/kg) IP, 2 h, P=0.11", "value": "trend towards decreased free DNA"}, {"measurement": "decrease in peroxidase activity by TMB in peritoneal wash", "setting": "Human neutrophil MPO; 20 mg (100 mg/kg) IP, 2 h, vs no PA-dPEG24, P=0.015", "value": 5, "unit": "fold"}, {"measurement": "free DNA in blood plasma (PicoGreen)", "setting": "Human neutrophil MPO; highest dose, P=0.22 vs no PIC1", "value": "lowest with the highest dose"}, {"measurement": "reduction of C5a generation", "setting": "[1]; 1 mM PA-dPEG24, vs heat-aggregated IgG with no inhibitor, P=0.002", "value": 61, "unit": "%"}, {"measurement": "PA-dPEG24 concentration giving statistically significant inhibition of effector (C5a, iC3b, SC5b-9) generation", "setting": "[1]; heat-aggregated IgG in NHS, each assay, P<0.05 vs no inhibitor", "value": "≥ 0.5", "unit": "mM"}]}]}
